Measured values published in article PMC10916352, “Safety Evaluation of a Prototypical Diazirine-Based Covalent Crosslinker and Molecular Adhesive” (International Journal of Toxicology, 2023).
Values joined by “and” are separate entries in the source; they are usually repeats but may differ in a detail not shown here. Equal values may be shown once.

Legend:
[1] = system: Salmonella typhimurium TA98; assay: Bacterial reverse mutation test (Ames), strain TA98; format: cell-based; details: for Revertant Colonies (With S9), plates A, B, C / Revertant Colonies (Without S9), plates A, B, C: individual plates
Description: (§1) The reverse mutation test was performed to determine the potential of BondLynx and/or its metabolites to induce reverse mutations at the histidine locus of Salmonella typhimurium.[26],[27] The test employs strains of Salmonella typhimurium carrying mutations in the genes involved in histidine production, such that they are only able to grow in histidine supplemented culture media. Upon exposure to mutagenic materials, these mutations may be reversed, thereby restoring the ability to grow in histidine-free media. When grown in the presence of the test compound on media with a small amount of histidine, tester strains grow briefly to allow the opportunity for mutation, followed by proliferation of revertant colonies upon depletion of the provided histidine. Thus, the number of revertant colonies following incubation is indicative of the ability of the test compound to induce mutations.
(§2) Tests were performed on two strains of the bacteria (TA98 and TA100) in the absence and presence of an exogenous mammalian metabolic activation system (5% v/v S9). Positive controls and BondLynx were suspended in dimethyl sulfoxide (DMSO) for testing, and DMSO served as the vehicle control. Positive controls consisted of 2-nitrofluorene (10 μg/plate) for the TA98 strain without S9, methyl mesylate (650 μg/plate) for the TA100 strain without S9, and 2-aminoanthracene for both strains with S9 (1 μg/plate for TA98 and 5 μg/plate for TA100). Eight concentrations of BondLynx (1.7, 5.4, 17, 52, 164, 512, 1600 and 5000 μg/plate) were tested in triplicate. The vehicle control was tested in triplicate and the positive controls were tested singular.
(§3) Test solutions were prepared by pre-incubating .1 mL fresh bacterial culture (10^9 cells/mL), .1 mL of a BondLynx dilution or control solution, and .5 mL of S9 mix or .1 M phosphate buffer for 30 min before adding to 3 mL of molten (45 ± 2°C) top agar. After mixing in a vortex, agar solutions were poured onto selective agar plates. Upon solidification, the prepared plates were inverted and incubated at 37.0 ± 1.0°C for 48 ± 4 h. Following incubation, revertant colonies were counted with a Sorcerer Colony Counter. The condition of the bacterial background lawn was evaluated macroscopically and/or microscopically using a dissecting microscope when considered necessary.

[2] = system: Salmonella typhimurium TA100; assay: Bacterial reverse mutation test (Ames), strain TA100; format: cell-based; details: for Revertant Colonies (With S9), plates A, B, C / Revertant Colonies (Without S9), plates A, B, C: individual plates
Description: as §1, §2, §3

[3] = In vitro skin irritation test, MTT viability; format: cell-based, human; details: human; 15 min exposure, 42 h post-incubation, relative to phosphate buffered saline; read-out: Cell Viability (%)
Description: (§4) Tests were performed in triplicate. […] Following exposure, samples were rinsed with phosphate buffered saline until no test item remain, dried carefully, and placed in a new 2 mL well with pre-warmed Maintenance Medium to incubate for 42 h. After incubation, cell culture inserts were dried carefully, transferred into a 12-well plate prefilled with 2 mL MTT in phosphate buffered saline (.3 mg/mL), and incubated for 3 h. Tissue samples were then dried, and a biopsy punch was taken. The epidermis was separated from the collagen matrix, and both were extracted with 500 μL isopropanol and stored for 70 h refrigerated. The amount of extracted formazan was measured in duplicate for each sample by the OD570.

[4] = system: EPISKIN Small Model (human epidermis model); assay: In vitro skin irritation test, MTT viability; format: cell-based
Description: as §4

[5] = TA98, without S9, 1600 μg/plate
[6] = TA98, without S9, 5000 μg/plate
[7] = absence of S9, higher concentrations
[8] = presence of S9, any tested dose level
[9] = TA100, without S9, 1.7 μg/plate
[10] = TA100, without S9, 5.4 μg/plate
[11] = TA100, without S9, 164 μg/plate
[12] = TA100, without S9, 512 μg/plate
[13] = TA100, without S9, 1600 μg/plate
[14] = TA100, without S9, 5000 μg/plate

Compound: FC(F)(F)C1(c2ccc(C(c3ccc(C4(C(F)(F)F)N=N4)cc3)(C(F)(F)F)C(F)(F)F)cc2)N=N1 [BondLynx, 2,2-bis-[4-[3-(trifluoromethyl)-3H-diazirin-3-yl]phenyl]hexafluoropropane]
- Mutagenicity conclusion ([1]; TA98, absence and presence of S9, 1.7 to 5000 μg/plate): non-mutagenic
- Total number of revertants relative to concurrent vehicle control ([1]; TA98, vs DMSO vehicle control): less than three times
- Revertant Colonies (With S9), Mean ± SD ([1]; TA98, with S9, 1.7 μg/plate): 20 ± 9
- Revertant Colonies (With S9), plates A, B, C ([1]; TA98, with S9, 1.7 μg/plate): 10 and 23 and 26
- Revertant Colonies (With S9), Mean ± SD ([1]; TA98, with S9, 5.4 μg/plate): 13 ± 8
- Revertant Colonies (With S9), plates A, B, C ([1]; TA98, with S9, 5.4 μg/plate): 4 and 15 and 19
- Revertant Colonies (With S9), Mean ± SD ([1]; TA98, with S9, 1600 μg/plate): 17 ± 8
- Revertant Colonies (With S9), plates A, B, C ([1]; TA98, with S9, 1600 μg/plate): 26 and 16 and 10
- Revertant Colonies (With S9), Mean ± SD ([1]; TA98, with S9, 5000 μg/plate): 13 ± 5
- Revertant Colonies (With S9), plates A, B, C ([1]; TA98, with S9, 5000 μg/plate): 8 and 16 (2×)
- Revertant Colonies (Without S9), Mean ± SD ([1]; TA98, without S9, 1.7 μg/plate): 9 ± 2
- Revertant Colonies (Without S9), plates A, B, C ([1]; TA98, without S9, 1.7 μg/plate): 8 and 11 and 7
- Revertant Colonies (Without S9), Mean ± SD ([1]; TA98, without S9, 5.4 μg/plate): 8 ± 4
- Revertant Colonies (Without S9), plates A, B, C ([1]; TA98, without S9, 5.4 μg/plate): 4 and 12 and 8
- Revertant Colonies (Without S9), Mean ± SD ([1]; TA98, without S9, 17 μg/plate): 13 ± 4
- Revertant Colonies (Without S9), plates A, B, C ([1]; TA98, without S9, 17 μg/plate): 15 and 11 and 12
- Revertant Colonies (Without S9), Mean ± SD [1, 5]: 9 ± 5
- Revertant Colonies (Without S9), plates A, B, C [1, 5]: 7 and 15 and 5
- Revertant Colonies (Without S9), Mean ± SD [1, 6]: 14 ± 3
- Revertant Colonies (Without S9), plates A, B, C [1, 6]: 18 and 12 (2×)
- Cytotoxicity (condition of microcolony lawn) [1, 7]: slight thinning of the microcolony lawn
- Cytotoxicity (condition of microcolony lawn) [1, 8]: toxicity was not observed
- Mutagenicity conclusion ([2]; TA100, absence and presence of S9, 1.7 to 5000 μg/plate): non-mutagenic
- Total number of revertants relative to concurrent vehicle control ([2]; TA100, vs DMSO vehicle control): less than two times
- Revertant Colonies (With S9), Mean ± SD ([2]; TA100, with S9, 1.7 μg/plate): 95 ± 3
- Revertant Colonies (With S9), plates A, B, C ([2]; TA100, with S9, 1.7 μg/plate): 93 and 94 and 98
- Revertant Colonies (With S9), Mean ± SD ([2]; TA100, with S9, 5.4 μg/plate): 92 ± 17
- Revertant Colonies (With S9), plates A, B, C ([2]; TA100, with S9, 5.4 μg/plate): 98 and 73 and 105
- Revertant Colonies (With S9), Mean ± SD ([2]; TA100, with S9, 17 μg/plate): 89 ± 15
- Revertant Colonies (With S9), plates A, B, C ([2]; TA100, with S9, 17 μg/plate): 72 and 98 (2×)
- Revertant Colonies (With S9), Mean ± SD ([2]; TA100, with S9, 52 μg/plate): 100 ± 16
- Revertant Colonies (With S9), plates A, B, C ([2]; TA100, with S9, 52 μg/plate): 118 and 93 and 88
- Revertant Colonies (With S9), Mean ± SD ([2]; TA100, with S9, 164 μg/plate): 96 ± 16
- Revertant Colonies (With S9), plates A, B, C ([2]; TA100, with S9, 164 μg/plate): 83 and 113 and 91
- Revertant Colonies (With S9), Mean ± SD ([2]; TA100, with S9, 512 μg/plate): 99 ± 16
- Revertant Colonies (With S9), plates A, B, C ([2]; TA100, with S9, 512 μg/plate): 98 and 84 and 116
- Revertant Colonies (With S9), Mean ± SD ([2]; TA100, with S9, 1600 μg/plate): 88 ± 8
- Revertant Colonies (With S9), plates A, B, C ([2]; TA100, with S9, 1600 μg/plate): 84 and 82 and 97
- Revertant Colonies (With S9), Mean ± SD ([2]; TA100, with S9, 5000 μg/plate): 96 ± 10
- Revertant Colonies (With S9), plates A, B, C ([2]; TA100, with S9, 5000 μg/plate): 107 and 94 and 88
- Revertant Colonies (Without S9), Mean ± SD [2, 9]: 88 ± 3
- Revertant Colonies (Without S9), plates A, B, C [2, 9]: 91 and 86 (2×)
- Revertant Colonies (Without S9), Mean ± SD [2, 10]: 112 ± 15
- Revertant Colonies (Without S9), plates A, B, C [2, 10]: 127 and 110 and 98
- Revertant Colonies (Without S9), Mean ± SD ([2]; TA100, without S9, 17 μg/plate): 107 ± 7
- Revertant Colonies (Without S9), plates A, B, C ([2]; TA100, without S9, 17 μg/plate): 114 and 101 and 105
- Revertant Colonies (Without S9), Mean ± SD ([2]; TA100, without S9, 52 μg/plate): 102 ± 22
- Revertant Colonies (Without S9), plates A, B, C ([2]; TA100, without S9, 52 μg/plate): 105 and 122 and 78
- Revertant Colonies (Without S9), Mean ± SD [2, 11]: 100 ± 4
- Revertant Colonies (Without S9), plates A, B, C [2, 11]: 95 and 103 and 102
- Revertant Colonies (Without S9), Mean ± SD [2, 12]: 91 ± 17
- Revertant Colonies (Without S9), plates A, B, C [2, 12]: 84 and 110 and 79
- Revertant Colonies (Without S9), Mean ± SD [2, 13]: 91 ± 12
- Revertant Colonies (Without S9), plates A, B, C [2, 13]: 82 and 86 and 105
- Revertant Colonies (Without S9), Mean ± SD [2, 14]: 102 ± 13
- Revertant Colonies (Without S9), plates A, B, C [2, 14]: 91 and 116 and 99
- Cytotoxicity (condition of microcolony lawn) [2, 7]: slight thinning of the microcolony lawn
- Cytotoxicity (condition of microcolony lawn) [2, 8]: toxicity was not observed
- viability at 15 min [3]: 106%
- Mean ± SD (OD570 corrected) ([4]; 15 min exposure, 42 h post-incubation): 1.019 ± .011
- OD570 ([4]; 15 min exposure, 42 h post-incubation, tissues A-C, duplicate readings): 1.0621 and 1.0517 and 1.0668 and 1.0420 and 1.0901 and 1.0602
- Skin irritation classification ([4]; viability >50%): non-irritant
